{
  "source": "ChEMBL document CHEMBL1201862",
  "about": "“PubChem BioAssay data set” (2004)",
  "key": {"Cytochrome P450 1A2": {"biological_target": "T1, Cytochrome P450 1A2 (Homo sapiens, UniProt P05177)", "T1 sequence (P05177 whole entry)": "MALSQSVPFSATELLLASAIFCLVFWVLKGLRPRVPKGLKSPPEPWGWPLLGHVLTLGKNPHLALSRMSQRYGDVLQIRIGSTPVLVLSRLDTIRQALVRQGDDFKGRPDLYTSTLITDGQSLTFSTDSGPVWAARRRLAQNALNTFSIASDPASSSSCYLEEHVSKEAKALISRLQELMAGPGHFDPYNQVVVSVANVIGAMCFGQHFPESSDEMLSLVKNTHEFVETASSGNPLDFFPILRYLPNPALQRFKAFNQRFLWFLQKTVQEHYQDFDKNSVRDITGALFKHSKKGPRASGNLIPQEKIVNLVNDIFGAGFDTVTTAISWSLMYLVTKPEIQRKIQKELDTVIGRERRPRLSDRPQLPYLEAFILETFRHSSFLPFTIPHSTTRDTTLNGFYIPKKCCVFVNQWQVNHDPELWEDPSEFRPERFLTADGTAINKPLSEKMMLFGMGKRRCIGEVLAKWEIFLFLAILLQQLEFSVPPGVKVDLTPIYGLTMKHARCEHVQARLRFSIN"}, "Escherichia coli": {"test_system": "Escherichia coli", "assay": "microbe, parasite or virus in culture"}, "HeLa": {"test_system": "HeLa", "assay": "ATP-based viability loss in HeLa cells – cell-based, CellTiter-Glo luminescence, cherry-pick samples, cytotoxicity control for MITF activator project, dose response (AID 540259)", "assay_type": "functional", "settings": "Homo sapiens"}, "Cytochrome P450 3A4 [1]": {"biological_target": "T2, Cytochrome P450 3A4 (Homo sapiens, UniProt P08684)", "T2 sequence (P08684 whole entry)": "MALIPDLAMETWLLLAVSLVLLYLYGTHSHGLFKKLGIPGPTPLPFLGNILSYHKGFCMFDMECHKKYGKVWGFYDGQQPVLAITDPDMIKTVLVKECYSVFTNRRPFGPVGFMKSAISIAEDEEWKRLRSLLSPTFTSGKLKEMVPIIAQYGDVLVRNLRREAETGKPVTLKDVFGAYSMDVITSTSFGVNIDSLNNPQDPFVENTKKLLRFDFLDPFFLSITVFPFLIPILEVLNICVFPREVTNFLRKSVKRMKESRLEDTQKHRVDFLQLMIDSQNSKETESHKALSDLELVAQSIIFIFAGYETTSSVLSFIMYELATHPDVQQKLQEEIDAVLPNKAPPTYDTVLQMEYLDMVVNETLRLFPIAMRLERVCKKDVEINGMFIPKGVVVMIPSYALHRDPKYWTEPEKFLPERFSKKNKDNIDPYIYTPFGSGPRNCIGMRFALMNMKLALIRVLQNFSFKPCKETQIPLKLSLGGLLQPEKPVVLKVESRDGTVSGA"}, "Cytochrome P450 2D6": {"biological_target": "Cytochrome P450 2D6 (Homo sapiens, UniProt P10635)", "sequence (P10635 whole entry)": "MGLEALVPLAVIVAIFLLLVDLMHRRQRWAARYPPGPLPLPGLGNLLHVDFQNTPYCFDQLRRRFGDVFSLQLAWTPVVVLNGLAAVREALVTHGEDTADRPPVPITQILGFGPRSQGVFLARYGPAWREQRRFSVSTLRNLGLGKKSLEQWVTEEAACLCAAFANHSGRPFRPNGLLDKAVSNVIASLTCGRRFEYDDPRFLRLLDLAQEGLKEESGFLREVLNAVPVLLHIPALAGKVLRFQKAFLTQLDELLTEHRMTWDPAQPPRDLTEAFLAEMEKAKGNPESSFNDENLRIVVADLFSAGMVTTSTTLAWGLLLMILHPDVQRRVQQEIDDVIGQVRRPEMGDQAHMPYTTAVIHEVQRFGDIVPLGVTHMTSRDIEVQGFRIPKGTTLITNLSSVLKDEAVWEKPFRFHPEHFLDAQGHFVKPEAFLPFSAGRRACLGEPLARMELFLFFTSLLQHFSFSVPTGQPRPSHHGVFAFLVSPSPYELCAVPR"}, "[2]": {"biological_target": "Voltage-gated inwardly rectifying potassium channel KCNH2 (Homo sapiens, UniProt Q12809)", "sequence (Q12809 whole entry)": "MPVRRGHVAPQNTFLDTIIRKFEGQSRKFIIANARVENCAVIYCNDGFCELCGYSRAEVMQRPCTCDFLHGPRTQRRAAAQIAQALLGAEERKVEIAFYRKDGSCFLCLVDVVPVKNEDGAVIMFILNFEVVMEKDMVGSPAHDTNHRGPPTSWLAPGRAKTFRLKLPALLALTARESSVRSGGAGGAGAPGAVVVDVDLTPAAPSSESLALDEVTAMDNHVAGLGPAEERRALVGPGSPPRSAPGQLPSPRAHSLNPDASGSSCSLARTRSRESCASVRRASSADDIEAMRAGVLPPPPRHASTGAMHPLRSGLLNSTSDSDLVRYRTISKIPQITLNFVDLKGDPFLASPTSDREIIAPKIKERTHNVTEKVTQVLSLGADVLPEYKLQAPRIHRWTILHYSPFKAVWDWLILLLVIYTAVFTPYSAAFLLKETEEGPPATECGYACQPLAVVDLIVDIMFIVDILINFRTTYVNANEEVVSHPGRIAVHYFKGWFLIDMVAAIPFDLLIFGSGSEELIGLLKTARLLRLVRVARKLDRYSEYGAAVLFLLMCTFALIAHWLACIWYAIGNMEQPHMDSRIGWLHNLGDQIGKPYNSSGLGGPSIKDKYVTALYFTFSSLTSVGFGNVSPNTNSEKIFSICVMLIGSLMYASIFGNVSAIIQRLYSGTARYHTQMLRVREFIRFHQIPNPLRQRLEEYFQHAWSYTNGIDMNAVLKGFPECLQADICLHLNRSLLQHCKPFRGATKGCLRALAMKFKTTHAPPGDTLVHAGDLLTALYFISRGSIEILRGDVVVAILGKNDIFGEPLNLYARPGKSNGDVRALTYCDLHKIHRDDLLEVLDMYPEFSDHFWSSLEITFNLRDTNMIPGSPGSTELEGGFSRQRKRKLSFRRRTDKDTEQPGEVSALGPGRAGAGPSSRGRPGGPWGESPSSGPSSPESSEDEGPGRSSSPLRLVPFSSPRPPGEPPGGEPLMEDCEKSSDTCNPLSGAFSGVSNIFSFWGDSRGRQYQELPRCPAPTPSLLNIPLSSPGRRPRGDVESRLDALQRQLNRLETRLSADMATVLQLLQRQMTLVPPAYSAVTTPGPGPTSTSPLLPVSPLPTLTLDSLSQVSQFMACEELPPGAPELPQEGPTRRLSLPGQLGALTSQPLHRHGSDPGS", "settings": "Potency"}, "Cytochrome P450 2C9": {"biological_target": "Cytochrome P450 2C9 (Homo sapiens, UniProt P11712)", "sequence (P11712 whole entry)": "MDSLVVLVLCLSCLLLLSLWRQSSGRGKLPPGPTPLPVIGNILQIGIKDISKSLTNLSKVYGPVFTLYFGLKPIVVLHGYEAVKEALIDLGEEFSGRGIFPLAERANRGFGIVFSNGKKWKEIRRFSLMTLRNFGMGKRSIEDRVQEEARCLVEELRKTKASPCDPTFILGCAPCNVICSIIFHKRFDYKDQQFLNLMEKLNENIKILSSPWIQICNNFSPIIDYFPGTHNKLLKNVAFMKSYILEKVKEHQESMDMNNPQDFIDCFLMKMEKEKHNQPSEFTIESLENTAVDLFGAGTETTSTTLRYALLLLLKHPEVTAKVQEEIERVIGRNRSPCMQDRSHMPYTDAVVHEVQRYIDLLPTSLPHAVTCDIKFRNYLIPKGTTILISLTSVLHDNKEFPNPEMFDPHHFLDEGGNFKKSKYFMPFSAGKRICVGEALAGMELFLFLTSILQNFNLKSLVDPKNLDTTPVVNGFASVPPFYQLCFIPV"}, "[3]": {"assay": "HEK-293T viability loss after treatment – luminescence, T-cell screen hits, cytotoxicity control for TCR NF-kB inhibitor project, dose response (AID 489026);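 further: cells exposed to compound about 14 hours before the viability readout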", "assay_type": "functional, cell-based"}, "cells [4]": {"assay": "cells", "assay_type": "functional, cell-based"}, "[5]": {"biological_target": "Dual specificity tyrosine-phosphorylation-regulated kinase 1A (Rattus norvegicus, UniProt Q63470)", "assay_type": "biochemical, Homo sapiens"}, "cells [6]": {"assay": "cells", "assay_type": "functional, cell-based", "remark": "listed apart in the source"}, "Cysteine protease ATG4B": {"biological_target": "T3, Cysteine protease ATG4B (Homo sapiens, UniProt Q9Y4P1)", "T3 sequence (Q9Y4P1 whole entry)": "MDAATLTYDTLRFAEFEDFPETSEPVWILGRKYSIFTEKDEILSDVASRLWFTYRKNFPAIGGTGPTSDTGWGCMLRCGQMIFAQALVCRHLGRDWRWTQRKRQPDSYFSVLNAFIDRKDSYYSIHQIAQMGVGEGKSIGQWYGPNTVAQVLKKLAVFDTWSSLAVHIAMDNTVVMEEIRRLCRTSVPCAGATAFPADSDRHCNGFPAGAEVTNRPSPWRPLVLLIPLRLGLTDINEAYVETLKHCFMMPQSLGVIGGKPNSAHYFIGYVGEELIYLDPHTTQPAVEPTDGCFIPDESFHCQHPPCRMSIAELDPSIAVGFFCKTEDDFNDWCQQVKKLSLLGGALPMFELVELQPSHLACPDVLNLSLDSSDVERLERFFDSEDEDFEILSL", "assay_type": "functional"}, "Phospholipase A2": {"biological_target": "Phospholipase A2 (Homo sapiens, UniProt P04054)", "sequence (P04054 whole entry)": "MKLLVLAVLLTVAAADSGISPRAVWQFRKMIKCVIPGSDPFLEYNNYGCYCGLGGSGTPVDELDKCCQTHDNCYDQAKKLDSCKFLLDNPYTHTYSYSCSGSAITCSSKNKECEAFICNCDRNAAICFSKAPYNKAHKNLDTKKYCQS", "assay_type": "functional"}, "Large T antigen": {"biological_target": "Large T antigen (Simian virus 40, UniProt P03070)", "sequence (P03070 whole entry)": "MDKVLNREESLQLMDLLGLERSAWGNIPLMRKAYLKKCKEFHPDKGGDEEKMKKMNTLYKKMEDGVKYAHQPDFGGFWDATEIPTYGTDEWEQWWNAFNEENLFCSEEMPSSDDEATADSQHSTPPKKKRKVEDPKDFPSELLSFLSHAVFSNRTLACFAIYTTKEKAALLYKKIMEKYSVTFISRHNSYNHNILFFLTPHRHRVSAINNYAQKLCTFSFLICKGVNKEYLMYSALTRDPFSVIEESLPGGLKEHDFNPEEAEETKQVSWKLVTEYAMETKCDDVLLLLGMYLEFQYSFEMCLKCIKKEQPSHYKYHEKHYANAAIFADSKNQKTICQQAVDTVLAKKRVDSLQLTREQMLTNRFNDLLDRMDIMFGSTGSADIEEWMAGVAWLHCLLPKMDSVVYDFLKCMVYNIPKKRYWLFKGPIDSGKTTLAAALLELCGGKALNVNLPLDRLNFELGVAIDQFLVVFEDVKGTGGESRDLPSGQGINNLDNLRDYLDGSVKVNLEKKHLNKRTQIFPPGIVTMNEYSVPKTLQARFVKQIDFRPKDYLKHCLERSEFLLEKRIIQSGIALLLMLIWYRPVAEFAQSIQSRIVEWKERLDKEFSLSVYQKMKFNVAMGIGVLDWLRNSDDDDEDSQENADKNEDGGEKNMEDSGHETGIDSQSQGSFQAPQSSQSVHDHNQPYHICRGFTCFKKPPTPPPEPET", "assay_type": "functional, Betapolyomavirus macacae"}, "[7]": {"assay": "NIH3T3 cell viability loss – ATP luminescence, mouse fibroblasts, counter-screen, dose response (AID 2010);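 further: cells exposed to compound for about 90 hours before reading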", "assay_type": "functional, cell-based"}, "[8]": {"assay": "Trypanosoma cruzi growth suppression in host cells – NIH3T3 host cells, beta-gal luminescence, confirmation (AID 2044);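 further: luminescent beta-galactosidase reporter signal from transgenic T. cruzi replicating inside host cells; inhibitors lower the luminescence signal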", "assay_type": "functional, cell-based"}, "Cytochrome P450 3A4 [9]": {"biological_target": "T2, Cytochrome P450 3A4", "settings": "Potency"}},
  "note": "The source made the active and inactive calls.",
  "data": [
    {"compound": "Cc1ccc(OCCNC(=O)c2cc(-n3cnnc3)ccc2Cl)cc1C", "values": [
      {"measurement": "AC50", "setting": "Cytochrome P450 1A2", "value": "28.2 µM (inconclusive)"},
      {"measurement": "AC50", "setting": "Escherichia coli", "value": "51 µM (active)"}
    ]},
    {"compound": "O=C(Nc1ccc2c(c1)CCC2)c1c(F)cccc1Cl", "values": [
      {"measurement": "AC50", "setting": "HeLa", "value": "> 350 µM (inactive)"}
    ]},
    {"compound": "CCn1c(/C=C/c2c[nH]c3ccccc23)nc2ccccc2c1=O", "values": [
      {"measurement": "AC50", "setting": "HeLa", "value": "50.7 µM (active)"}
    ]},
    {"compound": "O=C(N[C@@H](Cc1ccccc1)C(=O)CCl)OCc1ccccc1", "values": [
      {"measurement": "AC50", "setting": "Cytochrome P450 3A4 [1]", "value": "1.26 µM (inconclusive)"},
      {"measurement": "AC50", "setting": "Cytochrome P450 2D6", "value": "39.8 µM (inconclusive)"},
      {"measurement": "AC50", "setting": "[2]", "value": "25.1 µM (inconclusive)"},
      {"measurement": "AC50", "setting": "Cytochrome P450 2C9", "value": "12.6 µM (inconclusive)"},
      {"measurement": "IC50", "setting": "[3]", "value": "> 80 µM (inactive)"}
    ]},
    {"compound": "COc1ccc2[nH]c(C(=O)N/N=C/c3ccccc3OC)cc2c1", "values": [
      {"measurement": "EC50", "setting": "cells [4]", "value": "> 350 µM (not active)"},
      {"measurement": "AC50", "setting": "[5]", "value": "2.17 µM (active)"},
      {"measurement": "EC50", "setting": "cells [6]", "value": "> 350 µM (not active)"}
    ]},
    {"compound": "ClC(Cl)(Cl)C(Cl)(Cl)Cl", "note": "[HEXACHLOROETHANE]", "values": [
      {"measurement": "AC50", "setting": "[2]", "value": "39.8 µM (inconclusive)"}
    ]},
    {"compound": "Cc1cccc(N=C(S)Nc2ccc(Oc3ccccc3)cc2)n1", "values": [
      {"measurement": "IC50", "setting": "Cysteine protease ATG4B", "value": "22.5 µM (inactive)"},
      {"measurement": "IC50", "setting": "Phospholipase A2", "value": "16.8 µM (active)"}
    ]},
    {"compound": "Cc1ccc(/N=c2\\oc3cc(O)ccc3cc2C(N)=O)cc1", "values": [
      {"measurement": "IC50", "setting": "Large T antigen", "value": "33.8 µM (active)"},
      {"measurement": "AC50", "setting": "[5]", "value": "0.074 µM (active)"},
      {"measurement": "EC50", "setting": "[7]", "value": "> 60 µM (not active)"},
      {"measurement": "EC50", "setting": "[8]", "value": "3.69 µM (active)"}
    ]},
    {"compound": "CC(C)(C)c1ccc(OCC2CO2)cc1", "note": "(stereo not drawn)", "values": [
      {"measurement": "AC50", "setting": "[2]", "value": "12.6 µM (inconclusive)"}
    ]},
    {"compound": "CCOc1ccc(Nc2nc(O)c3c(n2)CCCC3)cc1", "values": [
      {"measurement": "AC50", "setting": "Escherichia coli", "value": "31.7 µM (active)"}
    ]},
    {"compound": "COC(=O)C1CCc2c(ccc3c2CCCC3)C1=O", "note": "(stereo not drawn)", "values": [
      {"measurement": "AC50", "setting": "HeLa", "value": "> 350 µM (inactive)"}
    ]},
    {"compound": "CCCCOCCOP(=O)(OCCOCCCC)OCCOCCCC", "values": [
      {"measurement": "AC50", "setting": "[2]", "value": "50.1 µM (inconclusive)"},
      {"measurement": "AC50", "setting": "Cytochrome P450 3A4 [9]", "value": "25.1 µM (inconclusive)"}
    ]},
    {"compound": "O=C(O)C1C2CCC(O2)C1C(=O)O", "note": "(stereo not drawn)", "values": [
      {"measurement": "AC50", "setting": "[2]", "value": "1.26 µM (inconclusive)"}
    ]},
    {"compound": "Cc1cccc2c1N(CCOc1ccc(C(C)(C)C)cc1)C(=O)C2=O", "values": [
      {"measurement": "IC50", "setting": "Cysteine protease ATG4B", "value": "5.76 µM (active)"},
      {"measurement": "IC50", "setting": "Phospholipase A2", "value": "4.75 µM (active)"}
    ]},
    {"compound": "COc1ccccc1C(=O)Nc1ccc2c(C)cc(=O)oc2c1", "values": [
      {"measurement": "AC50", "setting": "HeLa", "value": "51.7 µM (active)"}
    ]},
    {"compound": "CCCN(CCC)[C@@H]1CCc2cccc(O)c2C1", "values": [
      {"measurement": "AC50", "setting": "[2]", "value": "15.8 µM (inconclusive)"}
    ]},
    {"compound": "O=C(Nc1ccc(O)cc1)c1c(O)nc2c(c1O)CCCC2", "values": [
      {"measurement": "AC50", "setting": "HeLa", "value": "76 µM (active)"}
    ]},
    {"compound": "Oc1ccc(/C=N/n2c(S)nnc2COc2ccccc2)c(O)c1", "values": [
      {"measurement": "AC50", "setting": "[5]", "value": "0.796 µM (active)"}
    ]},
    {"compound": "COC(=O)c1ccc(CNC(=O)C2CCC(=O)N(Cc3ccccn3)C2)cc1", "note": "(stereo not drawn)", "values": [
      {"measurement": "AC50", "setting": "Escherichia coli", "value": "131 µM (active)"}
    ]},
    {"compound": "c1ccc(-c2ccc(-c3cnc4n3CCCCC4)cc2)cc1", "values": [
      {"measurement": "AC50", "setting": "HeLa", "value": "37.5 µM (active)"}
    ]}
  ]
}
